Assays:
[1] = Luminescent characteristics (fluorescence) in organic solvents; format: physicochemical; conditions: for λmaxfl: λex 470 nm
Experimental: (§1) The absorption and emission spectra of dyes solutions (in the range of 10^−6 to 10^−5 M) were recorded on CM 2203 spectrofluorometer (SOLAR) in a 10 mm of absorbing layer thickness at T = 25 ± 0.1 °C. The fluorescence quantum yield (φ), the fluorescence lifetime (τ), the rate constants of radiative processes (krad), and-radiative deactivation (knr) were obtained to use by the standard procedure. The fluorescence quantum yields (φ) of compounds were measured using the standard method (using standard Rhodamine 6G). The φ and τ errors were 10–15 %. The Stokes shift ( ΔλSt ) was calculated by the formula: […]

[2] = Electronic absorption spectra in organic solvents; format: physicochemical
Experimental: as §1

## CC1=CC(C)=[N+]2C1=Cc1c(C)cc(C)n1[B-]2(F)F [Compound 7, 4,4-Difluoro-1,3,5,7-tetramethyl-4-bora-3a,4a-diaza-s-indacene, reference compound]
[1]; 1-butanol
  ΔλSt, Stokes shift: 10 nm
  φ, fluorescence quantum yield: 0.932
  λmaxfl: 516 nm
[1]; 1-octanol
  ΔλSt, Stokes shift: 8 nm
  φ, fluorescence quantum yield: 0.941
  λmaxfl: 516 nm
[1]; 1-propanol
  ΔλSt, Stokes shift: 10 nm
  φ, fluorescence quantum yield: 0.920
  λmaxfl: 513 nm
[1]; DMF
  ΔλSt, Stokes shift: 10 nm
  φ, fluorescence quantum yield: 0.990
  λmaxfl: 513 nm
[1]; DMSO
  ΔλSt, Stokes shift: 12 nm
  φ, fluorescence quantum yield: 0.963
  λmaxfl: 516 nm
[1]; all solvents
  Stokes shift, range: 6–12 nm
[1]; chloroform
  ΔλSt, Stokes shift: 8 nm
  φ, fluorescence quantum yield: 0.903
  λmaxfl: 516 nm
[1]; cyclohexane
  φ, fluorescence quantum yield: 1.0
  λmaxfl: 514 nm
[1]; ethanol
  ΔλSt, Stokes shift: 7 nm
  φ, fluorescence quantum yield: 0.879
  λmaxfl: 512 nm
[1]; toluene
  ΔλSt, Stokes shift: 8 nm
  φ, fluorescence quantum yield: 0.825
  λmaxfl: 519 nm
[2]; 1-butanol
  ε, molar absorption coefficient: 86745 L/mol/cm
  λmaxabs S0→S1: 506 nm
  λmaxabs S0→S2: 364–375 nm
[2]; 1-octanol
  ε, molar absorption coefficient: 84427 L/mol/cm
  λmaxabs S0→S1: 508 nm
  λmaxabs S0→S2: 362–376 nm
[2]; 1-propanol
  ε, molar absorption coefficient: 87096 L/mol/cm
  λmaxabs S0→S1: 503 nm
  λmaxabs S0→S2: 362–375 nm
[2]; DMF
  ε, molar absorption coefficient: 85857 L/mol/cm
  λmaxabs S0→S1: 503 nm
  λmaxabs S0→S2: 364–375 nm
[2]; DMSO
  ε, molar absorption coefficient: 82190 L/mol/cm
  λmaxabs S0→S1: 504 nm
  λmaxabs S0→S2: 363–376 nm
[2]; chloroform
  ε, molar absorption coefficient: 89125 L/mol/cm
  λmaxabs S0→S1: 508 nm
  λmaxabs S0→S2: 363–374 nm
[2]; cyclohexane
  ε, molar absorption coefficient: 91201 L/mol/cm
  λmaxabs S0→S1: 509 nm
  λmaxabs S0→S2: 366–376 nm
[2]; ethanol
  ε, molar absorption coefficient: 81283 L/mol/cm
  λmaxabs S0→S1: 505 nm
  λmaxabs S0→S2: 363–374 nm
[2]; toluene
  ε, molar absorption coefficient: 82444 L/mol/cm
  λmaxabs S0→S1: 511 nm
  λmaxabs S0→S2: 365–373 nm

Reference: publication PMC9138141, “Design, Spectral Characteristics, Photostability, and Possibilities for Practical Application of BODIPY FL-Labeled Thioterpenoid” (Bioengineering, 2022)
